Laboratory results as given in patent US20120034320A1, “Skin Penetration Composition” (DOMINION RESOURCES, UNLIMITED, LLC, priority 2010, published 2012).
Structures can show the parent of a compound that is named as a salt.

Experiments:
fibromyalgia = assay: Physician observation, Patient A: fibromyalgia; format: in vivo, human; conditions: Relievz lotion twice daily to affected areas, pregabalin 400 mg daily, other products as previously used
[1] = system: sciatica and neuropathy (diabetic neuropathy); assay: Physician observation, Patient B: sciatica and diabetic neuropathy; format: in vivo, human; conditions: lotion applied to affected areas
Source text: The patient continues to use Relievz™ lotion daily.

SMILES	relief of fibromyalgia symptoms (fibromyalgia)	pain and ambulation [1]
CNCC[C@H](Oc1cccc2ccccc12)c1cccs1 [Cymbalta®, duloxetine HCl]	no relief	
NCC1(CC(=O)O)CCCCC1 [gabapentin]		continued pain
CC(C)C[C@H](CN)CC(=O)O [pregabalin]	no relief	
CC(C)C[C@H](CN)CC(=O)O [pregabapentin]		continued pain
